{
  "source": "patent US11485742B2",
  "about": "“2-azaspiro[3.4]octane derivatives as M4 agonists” (NOVARTIS AG, priority 2019, dated 2022)",
  "assay_type_in_all_cases": "cell-based",
  "key": {"[1]": {"target": "T1, Cloned human M1 receptor (CHRM1) (Homo sapiens, UniProt P11229)", "T1 construct": "expressed in transfected cells; host or cells: HEK293", "T1 sequence (P11229 1-460)": "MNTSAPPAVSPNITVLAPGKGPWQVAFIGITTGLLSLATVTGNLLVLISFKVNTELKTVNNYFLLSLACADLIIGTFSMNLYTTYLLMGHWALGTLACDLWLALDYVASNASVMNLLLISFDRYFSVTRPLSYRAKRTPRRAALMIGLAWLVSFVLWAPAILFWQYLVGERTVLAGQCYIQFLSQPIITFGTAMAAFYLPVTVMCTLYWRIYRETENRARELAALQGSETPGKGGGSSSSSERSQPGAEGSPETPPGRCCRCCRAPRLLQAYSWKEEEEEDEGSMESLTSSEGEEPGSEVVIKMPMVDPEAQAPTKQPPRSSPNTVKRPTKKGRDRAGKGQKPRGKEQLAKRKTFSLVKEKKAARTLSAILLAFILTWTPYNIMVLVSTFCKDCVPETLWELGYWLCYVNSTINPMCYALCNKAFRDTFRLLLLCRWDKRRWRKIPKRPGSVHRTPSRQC", "experiment": "CHRM1 Ca++ Flux Assay (HEK293 M1 cells, agonist mode)", "details": "for EC50: geometric mean if tested more than once, read-out: M1 FDSS EC50", "method_in_brief": "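HEK293 cells stably expressing human M1 were loaded with Ca++ dye, then given compounds (11-point dose, triplicate) in HBSS −Ca/−Mg, 20 mM HEPES. Ca++ flux was read over 3 min (agonist mode). Four-parameter curves were fitted, with activity as percent of carbachol EC100.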"}, "[2]": {"target": "T2, human cloned CHRM3 receptor (Homo sapiens, UniProt P20309)", "T2 construct": "expressed in transfected cells; host or cells: CHO-K1 (M3_CHO)", "T2 sequence (P20309 whole entry)": "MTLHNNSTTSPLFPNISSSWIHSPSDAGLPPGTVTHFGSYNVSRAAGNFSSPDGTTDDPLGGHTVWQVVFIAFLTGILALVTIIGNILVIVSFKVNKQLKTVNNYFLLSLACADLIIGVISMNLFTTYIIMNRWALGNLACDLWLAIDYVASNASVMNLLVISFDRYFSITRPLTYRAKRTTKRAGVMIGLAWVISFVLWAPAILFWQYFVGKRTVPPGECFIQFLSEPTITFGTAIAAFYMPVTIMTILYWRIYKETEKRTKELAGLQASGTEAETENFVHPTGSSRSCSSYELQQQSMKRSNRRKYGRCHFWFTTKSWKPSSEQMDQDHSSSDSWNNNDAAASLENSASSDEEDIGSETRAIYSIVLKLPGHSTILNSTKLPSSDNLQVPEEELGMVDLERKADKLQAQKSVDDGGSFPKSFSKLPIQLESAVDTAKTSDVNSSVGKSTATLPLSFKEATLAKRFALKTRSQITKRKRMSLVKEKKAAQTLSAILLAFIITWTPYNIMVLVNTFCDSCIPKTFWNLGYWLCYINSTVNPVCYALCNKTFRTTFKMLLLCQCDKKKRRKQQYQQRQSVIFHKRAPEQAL", "experiment": "CHRM3 Ca++ Flux Assay (M3_CHO cells, agonist mode)", "details": "for EC50: agonist mode, geometric mean if tested more than once, read-out: M3 FDSS EC50", "method_in_brief": "(§1)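 CHO-K1 cells stably expressing human M3 or M5 receptor, dye-loaded ≥1 h, treated with 11-point compound doses in triplicate; Ca++ flux read over 3 min (FDSS). Agonist-mode four-parameter fit; percent activity relative to carbachol EC100; repeat tests reported as geometric mean.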"}, "[3]": {"target": "T3, human cloned CHRM5 receptor (Homo sapiens, UniProt P08912)", "T3 construct": "expressed in transfected cells; host or cells: CHO (M5_CHO)", "T3 sequence (P08912 1-532)": "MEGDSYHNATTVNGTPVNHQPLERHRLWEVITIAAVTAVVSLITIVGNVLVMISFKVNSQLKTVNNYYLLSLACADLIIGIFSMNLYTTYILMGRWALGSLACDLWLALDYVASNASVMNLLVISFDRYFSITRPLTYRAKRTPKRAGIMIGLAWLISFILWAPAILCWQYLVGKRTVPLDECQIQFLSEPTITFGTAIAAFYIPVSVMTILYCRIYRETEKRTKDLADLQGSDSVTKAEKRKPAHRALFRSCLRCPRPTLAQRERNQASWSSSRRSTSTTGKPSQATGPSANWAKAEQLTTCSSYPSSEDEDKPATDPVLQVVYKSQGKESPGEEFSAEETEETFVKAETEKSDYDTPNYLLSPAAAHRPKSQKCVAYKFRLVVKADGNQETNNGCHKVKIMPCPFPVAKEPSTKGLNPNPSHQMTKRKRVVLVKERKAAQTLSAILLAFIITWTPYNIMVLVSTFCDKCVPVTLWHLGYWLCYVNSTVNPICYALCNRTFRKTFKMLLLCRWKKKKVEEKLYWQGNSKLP", "experiment": "CHRM5 Ca++ Flux Assay (M5_CHO cells, agonist mode)", "details": "for EC50: agonist mode, geometric mean if tested more than once, read-out: M5 FDSS EC50", "method_in_brief": "as §1"}, "[4]": {"details": "Percent Activity (PA) measured to EC100 of Carbachol"}},
  "data": [
    {"smiles": "Fc1ccc([C@H]2CCOC2)c(C2CCN([C@@H]3COC4(C3)CN(c3nnco3)C4)CC2)c1", "note": "(single isomer, unassigned) [Example 3F, (S)-7-(4-(5-fluoro-2-((R)-tetrahydrofuran-3-yl)phenyl)piperidin-1-yl)-2-(1,3,4-oxadiazol-2-yl)-5-oxa-2-azaspiro[3.4]octane or (S)-7-(4-(5-fluoro-2-((S)-tetrahydrofuran-3-yl)phenyl)piperidin-1-yl)-2-(1,3,4-oxadiazol-2-yl)-5-oxa-2-azaspiro[3.4]octane]", "values": [
      {"measurement": "M1 FDSS PA %", "setting": "[1]; Percent Activity (PA)", "value": 86, "unit": "%"},
      {"measurement": "EC50", "setting": "[1]", "value": 0.595, "unit": "µM"},
      {"measurement": "M3 FDSS PA %", "setting": "[2]; [4]", "value": 0, "unit": "%"},
      {"measurement": "EC50", "setting": "[2]", "value": "> 25", "unit": "µM"},
      {"measurement": "M5 FDSS PA %", "setting": "[3]; [4]", "value": 0, "unit": "%"},
      {"measurement": "EC50", "setting": "[3]", "value": "> 25", "unit": "µM"}
    ]},
    {"smiles": "Fc1cc(F)c(OCC2COC2)c(C2CCN([C@@H]3COC4(C3)CN(c3nnco3)C4)CC2)c1", "note": "[Example 2DD, (S)-7-(4-(3,5-difluoro-2-(oxetan-3-ylmethoxy)phenyl)piperidin-1-yl)-2-(1,3,4-oxadiazol-2-yl)-5-oxa-2-azaspiro[3.4]octane]", "values": [
      {"measurement": "Emax", "setting": "[1]; Percent Activity (PA), read-out: M1 FDSS PA %", "value": 67, "unit": "%"},
      {"measurement": "EC50", "setting": "[1]", "value": 1.12, "unit": "µM"},
      {"measurement": "Emax", "setting": "[2]; Percent Activity (PA) measured to EC100 of Carbachol, read-out: M3 FDSS PA %", "value": 0, "unit": "%"},
      {"measurement": "EC50", "setting": "[2]", "value": "> 25", "unit": "µM"},
      {"measurement": "Emax", "setting": "[3]; Percent Activity (PA) measured to EC100 of Carbachol, read-out: M5 FDSS PA %", "value": 0, "unit": "%"},
      {"measurement": "EC50", "setting": "[3]", "value": "> 25", "unit": "µM"}
    ]}
  ]
}
